Experimental data: ChEMBL document CHEMBL4610114, “Fragment-Based Discovery of Pyrazolopyridones as JAK1 Inhibitors with Excellent Subtype Selectivity” (J Med Chem, 2020)
≈ marks a conversion by molar mass, not a printed value.

What was measured:
[1] = target: T1, Tyrosine-protein kinase JAK1 (Homo sapiens, UniProt P23458)
[2] = target: T2, Tyrosine-protein kinase JAK3 (Homo sapiens, UniProt P52333)
T2 sequence (P52333 whole entry): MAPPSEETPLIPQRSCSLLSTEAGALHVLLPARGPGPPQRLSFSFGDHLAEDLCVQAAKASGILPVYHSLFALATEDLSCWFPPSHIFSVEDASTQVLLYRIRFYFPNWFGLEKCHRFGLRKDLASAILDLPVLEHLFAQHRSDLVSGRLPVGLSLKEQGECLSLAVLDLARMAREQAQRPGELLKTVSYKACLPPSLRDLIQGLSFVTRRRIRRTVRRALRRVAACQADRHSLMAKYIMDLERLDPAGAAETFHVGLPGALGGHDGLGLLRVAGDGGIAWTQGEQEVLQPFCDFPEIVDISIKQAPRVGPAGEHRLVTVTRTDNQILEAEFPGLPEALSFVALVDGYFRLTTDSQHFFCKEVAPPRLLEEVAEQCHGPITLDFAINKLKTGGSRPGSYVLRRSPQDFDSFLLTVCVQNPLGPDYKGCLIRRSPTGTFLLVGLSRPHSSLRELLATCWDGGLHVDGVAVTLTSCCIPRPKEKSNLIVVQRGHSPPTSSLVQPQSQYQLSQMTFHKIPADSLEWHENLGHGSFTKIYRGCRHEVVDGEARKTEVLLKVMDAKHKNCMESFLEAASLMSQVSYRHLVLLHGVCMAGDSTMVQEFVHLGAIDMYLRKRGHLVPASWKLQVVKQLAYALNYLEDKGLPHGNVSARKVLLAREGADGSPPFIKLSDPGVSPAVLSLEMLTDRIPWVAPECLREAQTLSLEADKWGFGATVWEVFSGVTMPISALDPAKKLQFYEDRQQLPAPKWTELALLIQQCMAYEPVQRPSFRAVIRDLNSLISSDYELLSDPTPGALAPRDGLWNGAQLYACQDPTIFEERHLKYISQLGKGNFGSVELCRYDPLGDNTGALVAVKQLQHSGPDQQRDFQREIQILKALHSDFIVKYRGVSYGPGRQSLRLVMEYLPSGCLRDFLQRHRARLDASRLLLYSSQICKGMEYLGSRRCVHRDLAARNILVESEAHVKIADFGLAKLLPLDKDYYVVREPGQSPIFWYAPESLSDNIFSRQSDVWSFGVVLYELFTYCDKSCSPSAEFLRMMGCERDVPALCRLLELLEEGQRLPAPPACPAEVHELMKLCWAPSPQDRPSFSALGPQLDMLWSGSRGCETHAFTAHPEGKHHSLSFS

[3] = target: T3, Tyrosine-protein kinase JAK2 (Homo sapiens, UniProt O60674)
T3 sequence (O60674 whole entry): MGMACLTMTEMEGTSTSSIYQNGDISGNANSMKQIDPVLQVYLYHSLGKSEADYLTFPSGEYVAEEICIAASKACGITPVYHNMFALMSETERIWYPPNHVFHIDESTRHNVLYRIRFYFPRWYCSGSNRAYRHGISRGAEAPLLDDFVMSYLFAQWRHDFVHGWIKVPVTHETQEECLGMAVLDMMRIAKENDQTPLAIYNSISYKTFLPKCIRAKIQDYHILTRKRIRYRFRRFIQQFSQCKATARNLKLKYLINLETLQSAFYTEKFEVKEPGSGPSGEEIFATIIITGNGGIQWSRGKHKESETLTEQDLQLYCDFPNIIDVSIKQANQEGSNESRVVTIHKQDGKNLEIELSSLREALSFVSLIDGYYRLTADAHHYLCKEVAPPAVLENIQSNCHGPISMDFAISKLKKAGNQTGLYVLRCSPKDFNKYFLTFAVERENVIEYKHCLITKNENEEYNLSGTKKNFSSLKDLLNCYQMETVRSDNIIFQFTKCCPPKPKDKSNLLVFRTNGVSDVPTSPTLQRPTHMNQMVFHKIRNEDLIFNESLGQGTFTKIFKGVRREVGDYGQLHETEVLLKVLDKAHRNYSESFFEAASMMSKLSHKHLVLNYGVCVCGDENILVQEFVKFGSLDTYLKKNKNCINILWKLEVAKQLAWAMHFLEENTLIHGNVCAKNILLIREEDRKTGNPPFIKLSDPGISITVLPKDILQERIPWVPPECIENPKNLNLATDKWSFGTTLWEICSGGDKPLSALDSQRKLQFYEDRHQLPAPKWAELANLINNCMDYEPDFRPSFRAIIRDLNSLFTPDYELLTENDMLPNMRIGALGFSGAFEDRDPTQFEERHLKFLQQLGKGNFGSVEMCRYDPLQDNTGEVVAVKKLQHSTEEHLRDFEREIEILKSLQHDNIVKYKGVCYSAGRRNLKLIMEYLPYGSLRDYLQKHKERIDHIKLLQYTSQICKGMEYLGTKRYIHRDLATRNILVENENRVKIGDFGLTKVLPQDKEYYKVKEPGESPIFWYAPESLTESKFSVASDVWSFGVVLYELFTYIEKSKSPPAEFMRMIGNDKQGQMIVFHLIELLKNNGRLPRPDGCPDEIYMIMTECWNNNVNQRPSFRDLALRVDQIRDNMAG

[4] = target: Non-receptor tyrosine-protein kinase TYK2 (Homo sapiens, UniProt P29597)
Chain of Non-receptor tyrosine-protein kinase TYK2 (P29597 whole entry): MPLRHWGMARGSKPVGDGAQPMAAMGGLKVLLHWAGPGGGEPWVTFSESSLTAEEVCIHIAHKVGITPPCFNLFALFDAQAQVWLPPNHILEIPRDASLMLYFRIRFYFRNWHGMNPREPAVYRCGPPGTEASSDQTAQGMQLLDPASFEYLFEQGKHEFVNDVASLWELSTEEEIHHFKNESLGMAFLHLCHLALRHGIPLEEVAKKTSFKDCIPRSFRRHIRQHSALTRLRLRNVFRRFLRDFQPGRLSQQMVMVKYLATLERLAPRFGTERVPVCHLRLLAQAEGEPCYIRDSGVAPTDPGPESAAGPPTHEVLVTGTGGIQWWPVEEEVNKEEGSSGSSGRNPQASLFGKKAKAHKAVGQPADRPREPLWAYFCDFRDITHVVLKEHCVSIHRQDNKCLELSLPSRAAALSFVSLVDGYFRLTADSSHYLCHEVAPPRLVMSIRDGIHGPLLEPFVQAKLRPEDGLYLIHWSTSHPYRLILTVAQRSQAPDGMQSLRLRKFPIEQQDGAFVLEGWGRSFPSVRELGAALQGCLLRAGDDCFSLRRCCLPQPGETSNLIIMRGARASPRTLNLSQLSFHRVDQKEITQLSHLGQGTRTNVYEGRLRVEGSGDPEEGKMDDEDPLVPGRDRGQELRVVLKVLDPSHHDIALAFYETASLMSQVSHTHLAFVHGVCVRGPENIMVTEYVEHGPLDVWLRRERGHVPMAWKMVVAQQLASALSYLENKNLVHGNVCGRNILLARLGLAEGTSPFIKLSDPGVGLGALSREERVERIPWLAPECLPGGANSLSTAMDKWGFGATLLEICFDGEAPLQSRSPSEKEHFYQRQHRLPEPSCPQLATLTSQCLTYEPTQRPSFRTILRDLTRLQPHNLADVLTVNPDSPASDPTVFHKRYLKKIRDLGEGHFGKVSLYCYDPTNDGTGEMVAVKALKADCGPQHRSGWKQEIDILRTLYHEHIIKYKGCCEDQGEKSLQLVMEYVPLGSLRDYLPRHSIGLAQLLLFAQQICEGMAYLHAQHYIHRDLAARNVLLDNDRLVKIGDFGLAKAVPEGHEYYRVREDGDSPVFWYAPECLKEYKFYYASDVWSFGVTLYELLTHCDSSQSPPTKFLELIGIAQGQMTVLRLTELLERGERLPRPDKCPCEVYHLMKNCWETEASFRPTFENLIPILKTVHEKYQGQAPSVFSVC

[5] = target: T1, Tyrosine-protein kinase JAK1; remark: listed apart in the source
Description: Inhibition of JAK1 in human STAT6-bla-RA1 cells assessed as reduction in IL4-induced STAT6-signalling pre-incubated for 1 hrs before human recombinant IL4 addition and further incubated for 4 hrs fluorescence based assay

[6] = target: T3, Tyrosine-protein kinase JAK2; remark: listed apart in the source
Description: Inhibition of JAK2 in human STAT5-irf1-bla TF1 cells assessed as reduction in EPO-induced STAT5-signalling pre-incubated for 1 hrs before EPO addition and further incubated for 4 hrs fluorescence based assay

[7] = physchem; conditions: octanol/water
Description: Lipophilicity, logD of the compound by shake flask assay

[8] = physchem; conditions: PBS buffer, pH 7.4
Description: Aqueous solubility in PBS buffer at pH 7.4 by HPLC analysis

[9] = in vitro; conditions: human, liver microsomes
Description: Apparent intrinsic clearance in human liver microsomes

T1 sequence (P23458 whole entry): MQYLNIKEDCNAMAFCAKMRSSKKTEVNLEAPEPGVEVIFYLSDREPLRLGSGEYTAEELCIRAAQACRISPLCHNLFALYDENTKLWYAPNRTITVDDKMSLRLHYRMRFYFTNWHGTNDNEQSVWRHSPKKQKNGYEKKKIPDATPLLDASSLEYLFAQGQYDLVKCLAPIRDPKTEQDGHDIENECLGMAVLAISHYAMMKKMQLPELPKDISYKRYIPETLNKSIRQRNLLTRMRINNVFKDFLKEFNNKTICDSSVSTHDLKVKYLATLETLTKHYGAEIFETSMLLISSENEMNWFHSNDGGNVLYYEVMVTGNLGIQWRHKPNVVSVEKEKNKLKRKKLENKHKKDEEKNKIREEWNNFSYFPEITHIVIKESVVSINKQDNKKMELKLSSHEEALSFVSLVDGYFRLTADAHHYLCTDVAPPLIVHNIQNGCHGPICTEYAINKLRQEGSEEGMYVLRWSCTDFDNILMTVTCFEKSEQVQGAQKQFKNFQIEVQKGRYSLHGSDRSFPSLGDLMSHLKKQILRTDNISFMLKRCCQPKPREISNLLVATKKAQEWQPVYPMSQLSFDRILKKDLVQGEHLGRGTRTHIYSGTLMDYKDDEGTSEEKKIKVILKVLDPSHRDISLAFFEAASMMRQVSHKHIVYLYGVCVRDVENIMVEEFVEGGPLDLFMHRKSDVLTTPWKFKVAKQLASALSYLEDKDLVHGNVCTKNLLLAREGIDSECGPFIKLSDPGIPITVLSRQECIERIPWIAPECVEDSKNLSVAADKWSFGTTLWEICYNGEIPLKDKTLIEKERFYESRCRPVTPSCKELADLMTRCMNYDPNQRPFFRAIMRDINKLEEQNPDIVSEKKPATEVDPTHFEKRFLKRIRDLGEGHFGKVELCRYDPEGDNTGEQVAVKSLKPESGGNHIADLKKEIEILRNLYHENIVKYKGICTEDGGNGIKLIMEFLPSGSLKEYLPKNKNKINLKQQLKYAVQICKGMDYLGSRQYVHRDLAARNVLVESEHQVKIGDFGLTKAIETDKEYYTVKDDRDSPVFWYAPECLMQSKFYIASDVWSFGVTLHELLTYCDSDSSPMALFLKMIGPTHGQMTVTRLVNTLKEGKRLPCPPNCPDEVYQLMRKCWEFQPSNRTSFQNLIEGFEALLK

Structure (SMILES)	IC50 [1] [µM]	IC50 [2] [µM]	IC50 [3] [µM]	IC50 [4] [µM]	IC50 [5] [µM]	IC50 [6] [µM]	logD [7]	solubility [8] [µM]	CLint scaled [9] [mL/min/kg]
Cc1[nH]nc2[nH]c(=O)cc([C@H]3CC[C@H](NC(=O)[C@H]4CC4(F)F)CC3)c12	0.078	2.7	1.7	2.7	> 40	> 40	1.3	29 (≈ 10.2 µg/mL)	–
Cc1[nH]nc2[nH]c(=O)cc([C@H]3CC[C@H](NC(=O)C4CCCC4)CC3)c12	0.11	4.8	1.6	6.8	9.1	> 30	–	–	–
Cc1[nH]nc2[nH]c(=O)cc([C@H]3C[C@H]4CC[C@@H]3C4)c12 (racemic)	0.046	0.24	0.43	0.43	0.85	22	2.8	64 (≈ 15.6 µg/mL)	–
O=c1cc(C2CCCCC2)c2c[nH]nc2[nH]1	15	12	35	24	> 50	–	–	–	–
Cc1[nH]nc2[nH]c(=O)cc([C@H]3CC[C@H](CC(=O)N4CC(Cc5ccccc5)C4)CC3)c12	0.003	0.088	–	–	0.25	–	3	2.4 (≈ 1 µg/mL)	87
Cc1[nH]nc2[nH]c(=O)cc([C@H]3CC[C@H](OC(=O)[C@@H]4CC4(F)F)CC3)c12	0.014	0.091	0.12	–	0.42	> 25	–	3 (≈ 1.05 µg/mL)	–
CCc1[nH]nc2[nH]c(=O)cc(C3CCCCC3)c12	0.46	1.6	2.7	–	2.5	> 40	3	–	–
Cc1[nH]nc2[nH]c(=O)cc([C@H]3CC[C@H](NS(=O)(=O)CC4CCC4)CC3)c12	0.04	1.7	0.57	–	3.2	> 10	–	–	–
Cc1[nH]nc2[nH]c(=O)cc([C@H]3CCCC[C@H]3C)c12 (racemic)	0.04	0.11	0.34	0.7	1.3	8.9	3	8 (≈ 1.96 µg/mL)	–
O=c1cc(C(F)F)c2c[nH]nc2[nH]1	> 100	–	–	–	–	–	–	–	–
Cc1[nH]nc2[nH]c(=O)cc([C@H]3CC[C@H](CC(=O)N4CCC(c5ccccc5)C4)CC3)c12 (mixture of isomers)	0.0021	0.063	0.019	–	0.11	2.4	3	–	75
Cc1[nH]nc2[nH]c(=O)cc([C@H]3CC[C@H](NC(=O)C4CC4)CC3)c12	0.22	7	2.1	2.8	> 14	> 14	1.2	22 (≈ 6.92 µg/mL)	–
Cc1[nH]nc2[nH]c(=O)cc([C@H]3CC[C@H](O)CC3)c12	0.49	1.7	–	4.2	20	–	0.8	> 85	–
Cc1[nH]nc2[nH]c(=O)cc([C@H]3CC[C@H](C(=O)NC4CC4)CC3)c12	2	1.1	9.4	14	> 40	> 40	–	–	–
Cc1[nH]nc2[nH]c(=O)cc(C3CCCCC3)c12	0.13	0.55	1.3	0.67	3.7	> 40	2.8	4 (≈ 0.925 µg/mL)	–
Cc1[nH]nc2[nH]c(=O)c(CCO)c(C3CCCCC3)c12	0.49	0.99	3.9	3.4	8.5	> 40	2.6	11 (≈ 3.03 µg/mL)	–
Cc1[nH]nc2[nH]c(=O)cc([C@H]3CC[C@H](CCC#N)CC3)c12	0.032	0.28	0.16	–	1.2	13	1.8	18 (≈ 5.12 µg/mL)	–
Cc1[nH]nc2[nH]c(=O)c(CO)c(C3CCCCC3)c12	0.14	1.4	2.8	0.65	4.8	> 40	2.1	100 (≈ 26.1 µg/mL)	–

Structure (SMILES)	IC50 [1] [µM]	IC50 [2] [µM]	IC50 [3] [µM]	IC50 [4] [µM]	IC50 [5] [µM]	IC50 [6] [µM]	logD [7]	solubility [8] [µM]	CLint scaled [9] [mL/min/kg]
Cc1[nH]nc2[nH]c(=O)cc([C@@H]3C[C@@H]4C[C@H]3C[C@H]4CC#N)c12	–	0.42	0.093	0.18	–	15	–	–	–
O=c1cc(C2CCCCC2)c2c(C3CC3)[nH]nc2[nH]1	0.5	0.98	1.3	1.6	1.8	> 40	3.1	–	–
Cc1[nH]nc2[nH]c(=O)cc([C@H]3CC[C@H](NC(=O)[C@@H]4CC4(F)F)CC3)c12	0.0064	0.48	0.12	0.22	1.7	> 7	1.3	43 (≈ 15.1 µg/mL)	–
CCCS(=O)(=O)N[C@H]1C[C@@H](N(C)c2ncnc3[nH]ccc23)C1 [ABROCITINIB]	–	–	–	–	–	–	2	–	–
Cc1[nH]nc2[nH]c(=O)cc([C@H]3CC[C@H](N)CC3)c12	0.82	11	18	16	> 40	> 40	–	–	–
Cc1[nH]nc2[nH]c(=O)cc(CC3CCC3)c12	0.12	0.48	0.57	1.1	3.4	> 40	2.2	16 (≈ 3.48 µg/mL)	–
Cc1[nH]nc2[nH]c(=O)cc([C@H]3CC[C@H](C#N)CC3)c12	0.73	11	–	–	–	–	–	–	–
Cc1[nH]nc2[nH]c(=O)cc([C@H]3CC[C@H](CC#N)CC3)c12	0.04	0.27	0.36	0.13	1.2	> 40	1.5	59 (≈ 15.9 µg/mL)	–
Cc1[nH]nc2[nH]c(=O)cc([C@H]3CC[C@H](NS(=O)(=O)C4CC4)CC3)c12	0.4	6.6	2.5	–	–	–	–	–	–
Cc1[nH]nc2[nH]c(=O)cc([C@H]3CC[C@H](CC(=O)N4CCC(C)(C)CC4)CC3)c12	0.0034	0.057	0.032	–	0.11	3.4	2.9	–	70
Cc1[nH]nc2[nH]c(=O)cc(C3CC4CCC3CC4)c12 (racemic)	0.054	0.065	0.33	0.22	0.89	9.1	3.3	8 (≈ 2.06 µg/mL)	–
Cc1cc(O)nc2c1c(C)nn2C	> 900	–	–	–	–	–	–	–	–
Cc1cc(=O)[nH]c2nn(C)c(C)c12	> 500	–	–	–	–	–	–	–	–
Cc1cc(=O)[nH]c2n[nH]c(C)c12	30	–	–	–	–	–	–	–	–
Cc1[nH]nc2[nH]c(=O)cc(-c3ccccc3)c12	2.2	2.6	4.2	3.9	> 50	–	2.2	> 90	–
Cc1[nH]nc2[nH]c(=O)cc([C@@H]3C[C@H]4CC[C@@H]3C4)c12 (racemic)	0.044	0.18	0.38	0.15	1	> 40	2.7	33 (≈ 8.03 µg/mL)	–
Cc1[nH]nc2[nH]c(=O)cc(C3CCCC3)c12	0.072	0.67	13	0.83	4.3	> 40	2.2	39 (≈ 8.47 µg/mL)	–
Cc1[nH]nc2[nH]c(=O)c(C#N)c(C3CCCCC3)c12	2.1	5.4	17	11	20	> 40	–	–	–
